Series [1] concerns HIV in MDM cells. Nature of the series: Synthesis of HIV p24 (gag) antigen in monocyte derived macrophages (MDM), 3-day assay. In kind it is cell-based. The note with it: 0.1-100 uM. The text has this:
The ability of AZT, ddC and ddA to inhibit synthesis of the p24 (gag) antigen of HIV in CEM and MDM cells was also examined. For CEM cells, the results for all three compounds were similar to those discussed in Mitsuya et al. (1987) Nature, 325:773-778 with ddC providing the most inhibitory effect at the lowest concentration, followed by AZT, followed by ddA in a 3-day assay.

The conditions of series [2]: acid conditions; cited from earlier work.
Series [3] concerns HIV in ATH8 cells. The note with it: HIV-infected ATH8 cells; read-out: Concentration providing a 50 percent protection level against the cytopathic effect of HIV; cited from earlier work.
Series [4] deals with uninfected ATH8 cells. The conditions noted are these: normal, read-out: Dose required to reduce the viability by 50 percent; cited from earlier work.

Bounds are passed on as bounds.

Consider `Nc1ncnc2c1ncn2[C@H]1CC[C@@H](CO)O1` [2',3'-dideoxyadenosine, reference compound], for which the “inhibition of p24 (gag) production from MDM cells” value in series [1] was “none of those compounds provided any inhibition”. Moreover, the “rate of acid hydrolysis relative to adenosine” value in series [2] is given as “about 40,000 times faster”. The EC50 in series [3] is 2700 nM. Further, the CC50 in series [4] is above 500000 nM.
